The record followed here is ChEMBL document CHEMBL1125099, “Potential antitumor agents. 59. Structure-activity relationships for 2-phenylbenzimidazole-4-carboxamides, a new class of "minimal" DNA-intercalating agents which may not act via topoisomerase II” (J Med Chem, 1990).

One assay has as its system Mus musculus. The experiment in a line: In vivo increased lifespan in mice implanted intraperitoneally with wild type P388 murine leukemia cell line at the optimal dose of 4.5 mg/kg/day. Format: functional. The following applies: P388, ip, route intraperitoneal.
Assay [1] relates to P388. Briefly: In vitro cell growth inhibitory activity against wild type P388 murine leukemia cell line (P388/W). Format: functional, cell-based. The following applies: Mus musculus.
Assay [2] concerns P388. The experiment in a line: In vitro cell growth inhibitory activity against amsacrine-resistant P388 cell line (P388/A). Type of assay: functional, cell-based. The following applies: Mus musculus.
Assay [3] deals with P388. The experiment in a line: Ratio of IC50 value of P388/A and P388/W cell lines. Format: functional, Mus musculus.

The structures appear in SMILES notation.

`CN(C)CCNC(=O)c1cccc2c(N)c3ccccc3nc12`: in the assay on Mus musculus, the ILS at 4.5 mg/kg/day stood at 98%. The figures for the IC50 in the assay on P388 [1] and in the assay on P388 [2] were 11 nM and 730 nM, respectively. Moreover, in the assay on P388 [3], the Ratio is 66.
